Measured values published in patent publication US4473577A, “2-Thiazolamine derivatives, process for preparing same, and pharmaceutical compositions comprising same” (Mitsui Toatsu Chemicals, Incorporated, priority 1982, dated 1984).
Where a name gives a salt, the structure may show the parent alone. Read-outs that look alike come from different tables or passages of the source.

How the values were obtained:
[1] = system: delayed hypersensitivity induced in mice by picryl chloride; assay: Augmentation test of delayed hypersensitivity (picryl chloride, ear thickness); type: in vivo, male mice of the ICR strain; conditions: mouse ICR, 50 mg per kg orally, simultaneously with sensitization; ear thickness before and 24 hours after challenge (7 days after sensitization); average of 16 measurements; * = P<0.05 vs control
Text: L., and Ptak, W. "Contact and delayed hypersensitivity in the mouse I. Active sensitization and passive transfer," Immunology, 15, 405-416(1968)). In the following Evaluation Test 1, this experimental system was used to carry out an augmentation test of delayed hypersensitivity. Male mice of the ICR strain, weighing approximately 30 g, were used in groups of eight. These animals were sensitized by shaving the hair on the abdomen and applying thereto a 3% solution of picryl chloride in a 4:1 mixture of olive oil and acetone. Simultaneously with this sensitization, each of three compounds of the present invention was dissolved or suspended in physiological saline containing 0.2% carboxymethyl cellulose and administered orally to the animals in a dose of 50 mg per kg of body weight. A control group was treated solely with physiological saline containing 0.2% carboxymethyl cellulose. Seven days after sensitization, the animals were challenged by wrapping the tips of a forceps with pieces of felt, impregnating the felt with olive oil containing 1% picryl chloride, and pinching both ears of each animal. The thicknesses of the ears were measured before and 24 hours after the challenge, and the calculated present increase of ear thickness (the average of 16 measurements made of the ears of 8 animals) is shown in Table 1. […] The test results thus obtained were subjected to statistical analysis using the F.t test. The values marked with an asterisk (*) indicate that, when they were compared with the value of the control, the differences were significant at P<0.05.

[2] = Test for acute oral toxicity; design: species or system male mice of the ddY strain; conditions: mouse, in vivo, male ddY mice, 7 days observation, estimated
Protocol: Each of the three compounds used in Evaluation Tests 1 and 2 was dissolved or suspended in physiological saline and administered orally to a group of 5 male mice of the ddY strain. The LD50 value of the compound was estimated by observing these animals for 7 days after administration.

[3] = system: adjuvant arthritis induced in rats by injection of a tubercle bacillus adjuvant; type: in vivo, male rats of the SD strain
[4] = rat SD, 5 mg per kg subcutaneously, nine times before and after adjuvant, left hind paw volume, * = P<0.05 vs control

Row | SMILES | Percent increase of ear thickness [1] [%] | LD50 at 168 h [2] [mg/kg] | Percent inhibition of swelling as compared with control group (average of 16-20 days) ([3]; rat, in vivo, sc) [%] | Percent inhibition of swelling as compared with control group (average of 16-20 days) [3, 4] [%]
1 | c1ccc([C@H]2CN3CCSC3=N2)cc1 [Levamisole hydrochloride, reference compound] | 31.2 | 200 to 300 | 19.8 | 
2 | CO/N=C(\C(=O)OC)c1csc(NC(=O)OCC(Cl)(Cl)Cl)n1 [drawing 8] | 33.4 |  |  | 
3 | CCC(=O)Nc1nc(/C(=N/OC)C(=O)OC)cs1 [drawing 10] | 35.2 |  |  | 
4 | CO/N=C(\C(=O)OC)c1csc(NC(=O)OCC(Cl)(Cl)Cl)n1 [drawing 11] |  |  |  | 39.5
5 | CCC(=O)Nc1nc(/C(=N/OC)C(=O)OC)cs1 [drawing 13] |  |  |  | 22.3
